Measured values reported in PubChem BioAssay (NCI).
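Tested at 5 concentrations; 48 h exposure; 96-well plates; endpoints linearly interpolated, else capped at highest concentration. At the TGI there is no net growth.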

Columns and labels:
Assay in all cases: NCI tumour cell line growth inhibition, 48 h
[1] = system: SR leukemia
[2] = system: UO-31 renal
[3] = system: MDA-N
[4] = system: HS 578T breast
[5] = system: HT29 colon
[6] = system: MDA-MB-231 breast
[7] = system: CCRF-CEM leukemia
[8] = system: KM12 colon
[9] = system: MALME-3M melanoma
[10] = system: HCC-2998 colon
[11] = system: RXF 393 renal
[12] = system: SNB-75 CNS
[13] = system: OVCAR-4 ovarian
[14] = system: SNB-19 CNS
[15] = system: K-562 leukemia
[16] = system: NCI/ADR-RES ovarian
[17] = system: CAKI-1 renal
[18] = system: IGROV1 ovarian
[19] = system: A549 NSCLC
[20] = system: HCT-116 colon
[21] = system: MDA-MB-435
[22] = system: 786-0 renal
[23] = system: COLO 205 colon
[24] = system: SK-MEL-5 melanoma
[25] = system: MCF7 breast
[26] = system: HCT-15 colon
[27] = system: PC-3 prostate
[28] = system: SN12C renal
[29] = system: NCI-H460 lung
[30] = system: DU-145 prostate
[31] = system: NCI-H226 lung
[32] = system: BT-549 breast
[33] = system: ACHN renal
[34] = system: SF-539 CNS
[35] = system: HOP-92 NSCLC
[36] = system: U251 CNS
[37] = system: SK-MEL-28 melanoma
[38] = system: SF-295 CNS
[39] = system: NCI-H23 lung
[40] = system: RPMI-8226 leukemia
[41] = system: NCI-H522 lung
[42] = system: EKVX NSCLC
[43] = system: A498 renal
[44] = system: UACC-62 melanoma
[45] = system: OVCAR-5 ovarian
[46] = system: M14 melanoma
[47] = system: SK-OV-3 ovarian
[48] = system: T-47D breast
[49] = system: SF-268 CNS
[50] = system: UACC-257 melanoma
[51] = system: LOX IMVI melanoma
[52] = system: OVCAR-8 ovarian
[53] = system: OVCAR-3 ovarian
[54] = system: MOLT-4 leukemia
[55] = system: HL-60(TB) leukemia
[56] = system: SK-MEL-2 melanoma
[57] = system: TK-10 renal
[58] = system: HOP-62 NSCLC
[59] = system: SW-620 colon

## C=C1c2nc3ccccc3n2C=C(c2ccc(C)cc2)N1c1ccccc1
[1]
  TGI: 6.82 µM
[2]
  TGI: > 100 µM
[3]
  TGI: 4.39 µM
[4]
  TGI: > 30.6 µM
[5]
  TGI: 9.77 µM
[6]
  TGI: > 53.6 µM
[7]
  TGI: > 54.8 µM
[8]
  TGI: 22 µM
[9]
  TGI: > 43.3 µM
[10]
  TGI: 10.7 µM
[11]
  TGI: > 44 µM
[12]
  TGI: 15.9 µM
[13]
  TGI: > 100 µM
[14]
  TGI: > 100 µM
[15]
  TGI: > 100 µM
[16]
  TGI: > 29.1 µM
[17]
  TGI: > 100 µM
[18]
  TGI: > 100 µM
[19]
  TGI: > 100 µM
[20]
  TGI: > 81 µM
[21]
  TGI: 10.7 µM
[22]
  TGI: > 59.9 µM
[23]
  TGI: > 33.2 µM
[24]
  TGI: 31.9 µM
[25]
  TGI: > 100 µM
[26]
  TGI: > 38 µM
[27]
  TGI: > 79.5 µM
[28]
  TGI: > 100 µM
[29]
  TGI: 27.1 µM
[30]
  TGI: > 100 µM
[31]
  TGI: 15.3 µM
[32]
  TGI: > 86.7 µM
[33]
  TGI: > 100 µM
[34]
  TGI: 7.46 µM
[35]
  TGI: > 100 µM
[36]
  TGI: 68.2 µM
[37]
  TGI: > 100 µM
[38]
  TGI: 13.6 µM
[39]
  TGI: > 100 µM
[40]
  TGI: > 34.5 µM
[41]
  TGI: 25.2 µM
[42]
  TGI: > 40.6 µM
[43]
  TGI: > 100 µM
[44]
  TGI: > 100 µM
[45]
  TGI: > 100 µM
[46]
  TGI: > 61.2 µM
[47]
  TGI: > 100 µM
[48]
  TGI: > 100 µM
[49]
  TGI: > 100 µM
[50]
  TGI: > 100 µM
[51]
  TGI: 66 µM
[52]
  TGI: > 63.4 µM
[53]
  TGI: > 40.9 µM
[54]
  TGI: 99 µM
[55]
  TGI: 16.3 µM
[56]
  TGI: > 46.1 µM
[57]
  TGI: > 100 µM
[58]
  TGI: > 100 µM
[59]
  TGI: > 100 µM

## Cc1[nH]n(-c2ncc(C(=O)O)c(=O)[nH]2)c(=O)c1CCO
[1]
  TGI: > 100 µM
[2]
  TGI: > 100 µM
[3]
  TGI: > 100 µM
[4]
  TGI: > 100 µM
[5]
  TGI: > 100 µM
[6]
  TGI: > 100 µM
[7]
  TGI: > 100 µM
[8]
  TGI: > 100 µM
[9]
  TGI: > 100 µM
[10]
  TGI: > 100 µM
[11]
  TGI: > 100 µM
[12]
  TGI: > 100 µM
[13]
  TGI: > 100 µM
[14]
  TGI: > 100 µM
[15]
  TGI: > 100 µM
[16]
  TGI: > 100 µM
[17]
  TGI: > 100 µM
[18]
  TGI: > 100 µM
[19]
  TGI: > 100 µM
[20]
  TGI: > 100 µM
[21]
  TGI: > 100 µM
[22]
  TGI: > 100 µM
[23]
  TGI: > 100 µM
[24]
  TGI: > 100 µM
[25]
  TGI: > 100 µM
[26]
  TGI: > 100 µM
[27]
  TGI: > 100 µM
[28]
  TGI: > 100 µM
[29]
  TGI: > 100 µM
[30]
  TGI: > 100 µM
[31]
  TGI: > 100 µM
[32]
  TGI: > 100 µM
[33]
  TGI: > 100 µM
[34]
  TGI: > 100 µM
[35]
  TGI: > 100 µM
[36]
  TGI: > 100 µM
[37]
  TGI: > 100 µM
[38]
  TGI: > 100 µM
[39]
  TGI: > 100 µM
[40]
  TGI: > 100 µM
[41]
  TGI: > 100 µM
[42]
  TGI: > 100 µM
[43]
  TGI: > 100 µM
[44]
  TGI: > 100 µM
[45]
  TGI: > 100 µM
[46]
  TGI: > 100 µM
[47]
  TGI: > 100 µM
[48]
  TGI: > 100 µM
[49]
  TGI: > 100 µM
[50]
  TGI: > 100 µM
[51]
  TGI: > 100 µM
[52]
  TGI: > 100 µM
[53]
  TGI: > 100 µM
[54]
  TGI: > 100 µM
[55]
  TGI: > 100 µM
[56]
  TGI: > 100 µM
[57]
  TGI: > 100 µM
[58]
  TGI: > 100 µM
[59]
  TGI: > 100 µM

## CCCCCCCCCCCC(=O)NCc1ccc(OC(=O)CCCCCCCCCCC)c(OC)c1
[1]
  TGI: > 92.8 µM
[2]
  TGI: > 100 µM
[3]
  TGI: > 100 µM
[4]
  TGI: > 100 µM
[5]
  TGI: > 100 µM
[6]
  TGI: > 100 µM
[7]
  TGI: 11.6 µM
[8]
  TGI: > 100 µM
[9]
  TGI: > 100 µM
[10]
  TGI: > 100 µM
[11]
  TGI: > 100 µM
[12]
  TGI: > 100 µM
[13]
  TGI: > 100 µM
[14]
  TGI: > 100 µM
[15]
  TGI: > 100 µM
[16]
  TGI: > 100 µM
[17]
  TGI: > 100 µM
[18]
  TGI: > 57.3 µM
[19]
  TGI: > 100 µM
[20]
  TGI: > 100 µM
[21]
  TGI: > 100 µM
[22]
  TGI: > 100 µM
[23]
  TGI: > 72.4 µM
[24]
  TGI: > 100 µM
[25]
  TGI: > 100 µM
[26]
  TGI: > 100 µM
[27]
  TGI: 97.9 µM
[28]
  TGI: > 100 µM
[29]
  TGI: > 100 µM
[30]
  TGI: > 100 µM
[31]
  TGI: > 100 µM
[32]
  TGI: > 100 µM
[33]
  TGI: > 100 µM
[34]
  TGI: 16.7 µM
[35]
  TGI: > 100 µM
[36]
  TGI: > 100 µM
[37]
  TGI: > 100 µM
[38]
  TGI: > 100 µM
[39]
  TGI: > 100 µM
[40]
  TGI: > 100 µM
[41]
  TGI: 12.2 µM
[42]
  TGI: > 100 µM
[43]
  TGI: > 100 µM
[44]
  TGI: > 100 µM
[45]
  TGI: > 100 µM
[46]
  TGI: > 100 µM
[47]
  TGI: > 100 µM
[48]
  TGI: > 100 µM
[49]
  TGI: > 100 µM
[50]
  TGI: > 100 µM
[51]
  TGI: > 100 µM
[52]
  TGI: > 100 µM
[53]
  TGI: > 100 µM
[54]
  TGI: > 100 µM
[55]
  TGI: 37.8 µM
[56]
  TGI: > 100 µM
[57]
  TGI: > 100 µM
[58]
  TGI: > 100 µM
[59]
  TGI: > 100 µM

## OC(CC(CC(O)(C(F)(F)F)C(F)(F)F)=NN=C(CC(O)(C(F)(F)F)C(F)(F)F)CC(O)(C(F)(F)F)C(F)(F)F)(C(F)(F)F)C(F)(F)F
[1]
  TGI: > 10 µM
[3]
  TGI: > 10 µM
[4]
  TGI: > 10 µM
[5]
  TGI: > 10 µM
[6]
  TGI: > 10 µM
[7]
  TGI: > 10 µM
[8]
  TGI: > 10 µM
[9]
  TGI: > 10 µM
[10]
  TGI: > 10 µM
[11]
  TGI: > 10 µM
[12]
  TGI: > 10 µM
[13]
  TGI: > 10 µM
[14]
  TGI: > 10 µM
[15]
  TGI: > 10 µM
[16]
  TGI: > 10 µM
[17]
  TGI: > 10 µM
[18]
  TGI: > 10 µM
[19]
  TGI: > 10 µM
[20]
  TGI: > 10 µM
[21]
  TGI: > 10 µM
[22]
  TGI: > 10 µM
[23]
  TGI: > 10 µM
[24]
  TGI: > 10 µM
[25]
  TGI: > 10 µM
[26]
  TGI: > 10 µM
[27]
  TGI: > 10 µM
[28]
  TGI: > 10 µM
[29]
  TGI: > 10 µM
[30]
  TGI: > 10 µM
[31]
  TGI: > 10 µM
[32]
  TGI: > 10 µM
[33]
  TGI: > 10 µM
[34]
  TGI: > 10 µM
[35]
  TGI: > 10 µM
[36]
  TGI: > 10 µM
[37]
  TGI: > 10 µM
[38]
  TGI: > 10 µM
[39]
  TGI: > 10 µM
[40]
  TGI: > 10 µM
[41]
  TGI: > 10 µM
[42]
  TGI: > 10 µM
[43]
  TGI: > 10 µM
[44]
  TGI: > 10 µM
[45]
  TGI: > 10 µM
[46]
  TGI: > 10 µM
[47]
  TGI: > 10 µM
[48]
  TGI: > 10 µM
[49]
  TGI: > 10 µM
[50]
  TGI: > 10 µM
[51]
  TGI: > 10 µM
[52]
  TGI: > 10 µM
[53]
  TGI: > 10 µM
[54]
  TGI: > 10 µM
[55]
  TGI: > 10 µM
[56]
  TGI: > 10 µM
[57]
  TGI: > 10 µM
[58]
  TGI: > 10 µM
[59]
  TGI: > 10 µM
